In data set [1] the test system is rat. The data set can be described thus: Systemic arterial blood pressure during renal artery infusion.
Data set [2] concerns rat. The following applies: in vivo.

SMILES strings stand for the structures. Read-outs that look alike come from different tables or passages of the source. Non-standard residues stand in square brackets, D forms with d. Residues, ends and D or L forms follow the SMILES beside them. Nle = CCCC[C@H](N)C(=O)O

In the case of `CC[C@H](C)[C@H](NC(=O)[C@H](Cc1ccc(O)cc1)NC(=O)[C@@H](N)CCCCN)C(=O)N[C@@H](Cc1c[nH]cn1)C(=O)N1CCC[C@H]1C(=O)N[C@@H](Cc1ccccc1)C(=O)O` [KYIHPF] (H-KYIHPF-OH), the “effect on arterial blood pressure” value in the data set on rat [1] is listed as “no significant changes in arterial blood pressure”.

As for `CCCC[C@H](N)C(=O)N[C@@H](Cc1ccc(O)cc1)C(=O)N[C@H](C(=O)N[C@@H](Cc1cnc[nH]1)C(=O)N1CCC[C@H]1C(=O)N[C@@H](Cc1ccccc1)C(=O)O)[C@@H](C)CC` [NleYIHPF] (H-[Nle]YIHPF-OH), the “effect on arterial blood pressure” value in the data set with rat [2] is reported as “no effect on mean arterial pressure”.
